Source: patent US20260265262A1, “CDK2 INHIBITORS AND METHODS OF USING THE SAME” (Cedilla Therapeutics, Inc., priority 2022, published 2026)
Read-outs that look alike come from different tables or passages of the source.

Key:
CDK2/Cyclin E1 = CDK2/Cyclin E1 (Homo sapiens, UniProt P24941); assay: ADP-Glo Luminescent Kinase Assay (CDK2/E1-37C); type: biochemical; details: 0.18 nM CDK2/Cyclin E1, 100 μM ATP, 1.5 μM Histone H1, 37° C., 60 min pre-incubation
How it was run: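 Human CDK2/Cyclin E1 preincubated with inhibitor 60 min at 37 °C, then reacted 90 min at 37 °C with final 0.18 nM enzyme, 100 μM ATP, 1.5 μM Histone H1 in HEPES pH 7.5 buffer. ADP formed read by ADP-Glo luminescence; IC50 from four-parameter fit.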

Kuramochi cells = assay: IncuCyte cell proliferation assay; type: cell-based
How it was run: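 Kuramochi cells expressing mApple-H2B were treated with a 10-point, ½-log dilution series (top 20 μM). Fluorescent nuclei were counted by IncuCyte imaging at 0 and 72 h. The fold change in cell count was normalized to DMSO wells and fitted to dose-response curves to give […].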

[1] = read-out: ADPGLO (CDK2/E1-37C): IC50
[2] = Kuramochi cells labeled with mApple-H2B, cell count 0 to 72 hours, 20 μM top concentration, read-out: IncuCyte Kuramochi RB-WT: IC50

| SMILES | IC50 (CDK2/Cyclin E1; [1]) | IC50 (Kuramochi cells; [2]) | IC50 (CDK2/Cyclin E1; ADPGLO (CDK2/E1-37C): IC50 (μM)) | IC50 (Kuramochi cells; read-out: IncuCyte Kuramochi RB-WT: IC50 (μM)) |
| --- | --- | --- | --- | --- |
| C[C@@H](OCC12CCC(CC1)OC2)[C@H](NC(=O)[C@@H]1CN(C(=O)c2cnn(Cc3ccc(C(F)(F)F)cc3)c2)CC12CN(C(=O)C1(C(F)(F)F)CC1)C2)C(=O)N1CCC(c2nccs2)CC1 [Example I-91, (S)—N-((2S,3R)-3-(2-oxabicyclo[2.2.2]octan-4-ylmethoxy)-1-oxo-1-(4-(thiazol-2-yl)piperidin-1-yl)butan-2-yl)-6-(1-(4-(trifluoromethyl)benzyl)-1H-pyrazole-4-carbonyl)-2-(1-(trifluoromethyl)cyclopropanecarbonyl)-2,6-diazaspiro[3.4]octane-8-carboxamide] | < 0.5 µM | 0.5 to 5 µM | – | – |
| C[C@@H](OCC12CCC(CC1)OC2)[C@H](NC(=O)[C@@H]1CN(C(=O)c2cnc(O)cn2)CC12CN(C(=O)C1(C(F)(F)F)CC1)C2)C(=O)N1CCC(c2ccc(C(=O)O)c(C(F)(F)F)c2)CC1 [I-89 1st, 4-(1-(O-((2-oxabicyclo[2.2.2]octan-4-yl)methyl)-N—((S)-6-(5-hydroxypyrazine-2-carbonyl)-2-(1-(trifluoromethyl)cyclopropane-1-carbonyl)-2,6-diazaspiro[3.4]octane-8-carbonyl)-L-threonyl)piperidin-4-yl)-2-(trifluoromethyl)benzoic acid] | > 10 µM | > 20 µM | – | – |
| C[C@@H](OCC12CCC(CC1)OC2)[C@H](NC(=O)[C@@H]1CN(C(=O)c2cnc(O)cn2)CC12CN(C(=O)C1(C(F)(F)F)CC1)C2)C(=O)N1CCC(c2ccc(C(F)(F)F)c(C(=O)O)c2)CC1 [Example I-63] | < 0.5 µM | > 20 µM | – | – |
| COC(=O)c1ccc(C2CCN(C(=O)[C@@H](NC(=O)[C@@H]3CN(C(=O)c4cnn(Cc5ccc(C(F)(F)F)cc5)c4)CC34CN(C(=O)C3(C(F)(F)F)CC3)C4)[C@@H](C)OCC34CCC(CC3)OC4)CC2)cc1 [Example I-13] | < 0.5 µM | 0.5 to 5 µM | – | – |
| CC1(C)C[C@@H]1C(=O)N1CC2(CN(C(=O)c3cncs3)C[C@H]2C(=O)N2CCC[C@@H](N(CC(=O)O)CC3CCCCC3)C2)C1 [Example I-71] | > 10 µM | > 20 µM | – | – |
| COP(=O)(CCNC(=O)[C@@H](NC(=O)[C@@H]1CN(C(=O)c2cnn(Cc3ccccc3)c2)CC12CN(C(=O)[C@H]1CC1(C)C)C2)[C@@H](C)OCC1CCCCC1)OC [Example I-27] | – | – | < 0.5 µM | 0.5 to 5 µM |
| C[C@@H](OCC12CCC(CC1)OC2)[C@H](NC(=O)[C@@H]1CN(C(=O)c2cnn(Cc3ccccc3)c2)CC12CN(C(=O)C1(C(F)(F)F)CC1)C2)C(=O)N1CCC(c2nccs2)CC1 [Example I-69, (S)—N-((2S,3R)-3-(2-oxabicyclo[2.2.2]octan-4-ylmethoxy)-1-oxo-1-(4-(thiazol-2-yl)piperidin-1-yl)butan-2-yl)-6-(1-benzyl-1H-pyrazole-4-carbonyl)-2-(1-(trifluoromethyl)cyclopropanecarbonyl)-2,6-diazaspiro[3.4]octane-8-carboxamide] | < 0.5 µM | 0.5 to 5 µM | – | – |
| C[C@@H](OCC12CCC(CC1)OC2)[C@H](NC(=O)[C@@H]1CN(C(=O)c2cnn(Cc3ccc(C(F)(F)F)cc3)c2)CC12CN(C(=O)C1(C(F)(F)F)CC1)C2)C(=O)N1CCC(c2ccc(C(=O)O)cc2)CC1 [Example I-99] | < 0.5 µM | > 20 µM | – | – |
| COC(=O)CC1CN(C(=O)[C@@H]2CN(C(=O)c3cncs3)CC23CN(C(=O)[C@H]2CC2(C)C)C3)CCN1CC1CCCCC1 (some centres unmarked) [Example I-21] | > 10 µM | > 20 µM | – | – |

Second part, led by results:

| IC50 (CDK2/Cyclin E1; [1]) | SMILES | IC50 (Kuramochi cells; [2]) | IC50 (CDK2/Cyclin E1; ADPGLO (CDK2/E1-37C): IC50 (μM)) | IC50 (Kuramochi cells; read-out: IncuCyte Kuramochi RB-WT: IC50 (μM)) |
| --- | --- | --- | --- | --- |
| < 0.5 µM | C[C@@H](OCC1CCOCC1)[C@H](NC(=O)[C@@H]1CN(C(=O)c2cnn(Cc3ccc(C(F)(F)F)cc3)c2)CC12CN(C(=O)C1(C(F)(F)F)CC1)C2)C(=O)N1CCC(c2nccs2)CC1 [Example I-79, (S)—N-((2S,3R)-1-oxo-3-((tetrahydro-2H-pyran-4-yl)methoxy)-1-(4-(thiazol-2-yl)piperidin-1-yl)butan-2-yl)-6-(1-(4-(trifluoromethyl)benzyl)-1H-pyrazole-4-carbonyl)-2-(1-(trifluoromethyl)cyclopropane-1-carbonyl)-2,6-diazaspiro[3.4]octane-8-carboxamide] | 0.5 to 5 µM | – | – |
| < 0.5 µM | C[C@@H](OCC1CCOCC1)[C@H](NC(=O)[C@@H]1CN(C(=O)c2cnn(Cc3ccc(C(F)(F)F)cc3)c2)CC12CN(C(=O)C1(C(F)(F)F)CC1)C2)C(=O)N1CCC(c2ccc(C(=O)O)cc2)CC1 [I-64 1st, 4-(1-(O-((tetrahydro-2H-pyran-4-yl)methyl)-N—((S)-6-(1-(4-(trifluoromethyl)benzyl)-1H-pyrazole-4-carbonyl)-2-(1-(trifluoromethyl)cyclopropane-1-carbonyl)-2,6-diazaspiro[3.4]octane-8-carbonyl)-L-threonyl)piperidin-4-yl)benzoic acid] | > 20 µM | – | – |
| > 10 µM | CC1(C)C[C@@H]1C(=O)N1CC2(CN(C(=O)c3cncs3)C[C@H]2C(=O)N2CCN(CC3CCCCC3)C(CC(=O)NS(C)(=O)=O)C2)C1 (single isomer, unassigned) [Example I-95] | > 20 µM | – | – |
| 0.5 to 5 µM | C[C@@H](OCC1(C(F)(F)F)CC1)[C@H](NC(=O)[C@@H]1CN(C(=O)c2cnn(Cc3ccc(C(F)(F)F)cc3)c2)CC12CN(C(=O)C1(C(F)(F)F)CC1)C2)C(=O)N1CCC(c2ccc(C(=O)O)cc2)CC1 [Example I-68, 4-(1-(N—((S)-6-(1-(4-(trifluoromethyl)benzyl)-1H-pyrazole-4-carbonyl)-2-(1-(trifluoromethyl)cyclopropane-1-carbonyl)-2,6-diazaspiro[3.4]octane-8-carbonyl)-O-((1-(trifluoromethyl)cyclopropyl)methyl)-L-threonyl)piperidin-4-yl)benzoic acid] | > 20 µM | – | – |
| 5 to 10 µM | CCOC(=O)CN(CC1CCCCC1)[C@H]1CCCN(C(=O)[C@@H]2CN(C(=O)c3cncs3)CC23CN(C(=O)[C@H]2CC2(C)C)C3)C1 [Example I-74] | > 20 µM | – | – |
| < 0.5 µM | C[C@@H](OCC1CCCCC1)[C@H](NC(=O)[C@@H]1CN(C(=O)c2cnn(CC3CCCCC3)c2)CC12CN(C(=O)[C@H]1CC1(C)C)C2)C(=O)N1CCC(c2ccc(C(=O)O)cc2)CC1 [Example I-30, 4-(1-(O-(cyclohexylmethyl)-N—((S)-6-(1-(cyclohexylmethyl)-1H-pyrazole-4-carbonyl)-2-((S)-2,2-dimethylcyclopropane-1-carbonyl)-2,6-diazaspiro[3.4]octane-8-carbonyl)-L-threonyl)piperidin-4-yl)benzoic acid] | 0.5 to 5 µM | – | – |
| < 0.5 µM | C[C@@H](OCC12CCC(CC1)OC2)[C@H](NC(=O)[C@@H]1CN(C(=O)c2cnn(Cc3ccc(C(F)(F)F)cc3)c2)CC12CN(C(=O)C1(C(F)(F)F)CC1)C2)C(=O)N1CCC(c2nnn[nH]2)CC1 [Example I-100] | > 20 µM | – | – |
| 0.5 to 5 µM | C[C@@H](OCC12CCC(CC1)OC2)[C@@H](COC1CCOCC1)NC(=O)[C@@H]1CN(C(=O)c2cncs2)CC12CN(C(=O)C1(C(F)(F)F)CC1)C2 [Example I-113, (8S)—N-[(2R,3R)-3-{2-oxabicyclo[2.2.2]octan-4-ylmethoxy}-1-(oxan-4-yloxy)butan-2-yl]-6-(1,3-thiazole-5-carbonyl)-2-[1-(trifluoromethyl)cyclopropanecarbonyl]-2,6-diazaspiro[3.4]octane-8-carboxamide] | > 20 µM | – | – |
| 0.5 to 5 µM | C[C@@H](OCC12CCC(CC1)OC2)[C@H](NC(=O)[C@H]1CN(C(=O)c2cnc(O)cn2)CC12CN(C(=O)C1(C(F)(F)F)CC1)C2)C(=O)N1CCC(c2ccc(C(=O)O)c(C(F)(F)F)c2)CC1 (single isomer, unassigned) [I-89 2nd, 4-(1-(O-((2-oxabicyclo[2.2.2]octan-4-yl)methyl)-N-(6-(5-hydroxypyrazine-2-carbonyl)-2-(1-(trifluoromethyl)cyclopropane-1-carbonyl)-2,6-diazaspiro[3.4]octane-8-carbonyl)-L-threonyl)piperidin-4-yl)-2-(trifluoromethyl)benzoic acid] | > 20 µM | – | – |
| 0.5 to 5 µM | COC(=O)CCNC(=O)[C@@H](NC(=O)[C@@H]1CN(C(=O)c2cnn(Cc3ccc(F)cc3C(F)(F)F)c2)CC12CN(C(=O)C1(C(F)(F)F)CC1)C2)[C@@H](C)OCC12CCC(CC1)OC2 [Example I-110, Methyl 3-((2S,3R)-3-((2-oxabicyclo[2.2.2]octan-4-yl)methoxy)-2-((S)-6-(1-(4-fluoro-2-(trifluoromethyl)benzyl)-1H-pyrazole-4-carbonyl)-2-(1-(trifluoromethyl)cyclopropane-1-carbonyl)-2,6-diazaspiro[3.4]octane-8-carboxamido)butanamido)propanoate] | > 20 µM | – | – |
| < 0.5 µM | COC(=O)[C@@H]1CN(C(=O)[C@@H](NC(=O)[C@@H]2CN(C(=O)c3cnn(Cc4ccc(C#N)cc4)c3)CC23CN(C(=O)C2(C(F)(F)F)CC2)C3)[C@@H](C)OCC23CCC(CC2)OC3)CCN1C(=O)OC(C)(C)C [Example I-114] | 5 to 20 µM | – | – |
| < 0.5 µM | Cc1cc(C2CCN(C(=O)[C@@H](NC(=O)[C@@H]3CN(C(=O)c4cnn(Cc5ccc(C(F)(F)F)cc5)c4)CC34CN(C(=O)C3(C(F)(F)F)CC3)C4)[C@@H](C)OCC34CCC(CC3)OC4)CC2)cc(C(F)(F)F)c1OCC(=O)O [Example I-104] | > 20 µM | – | – |
| 5 to 10 µM | CNC(=O)[C@@H](NC(=O)[C@@H]1CN(C(=O)c2cncs2)CC12CN(CC1CCCO1)C2)[C@@H](C)OCC12CCC(CC1)OC2 (some centres unmarked) [Example I-48] | > 20 µM | – | – |
